# Measured values taken from patent publication US7465541B1, “Vitamin D3-responsive sequences located 5′-upstream of p27/kip 1 gene and methods of screening for pharmaceutical agents using the sequences” (Toshiyuki Sakai, priority 2000, dated 2008).
# How the values were obtained:
# p27^Kip1 mRNA = p27^Kip1 mRNA induction in U937 cells (Northern analysis); format: cell-based, human; details: peaked between 24 h and 48 h, compared with 0 h
# Protocol: Human cervical cancer cell line, C33A, human osteosarcoma cell lines, U2OS and MG63 were maintained in Dulbecco modified Eagle media containing 10% (v/v) fetal bovine serum (FBS) and cultivated in an atmosphere of 5% CO2 at 37° C. Human myelomonocytic cell line U937 (a generous gift from Dr. Y. Honma of the Saitama Cancer Research Institute, Saitama, Japan) was cultivated in Rosweli Park Memorial Institute (RPMI) 1640 media supplemented with 10% (v/v) fatal bovine serum in an atmosphere of 5% CO2.
# For this purpose, a series of 5′ deletion constructs of the p27^Kip1 promoter were examined.
# [1] = system: −555/−512 region of the human p27^Kip1 promoter fused to SV40 early promoter; assay: Luciferase reporter assay with −555/−512 sequence upstream of SV40 early promoter in U937 cells; format: cell-based
# Source text: Furthermore, the present inventors generated constructs containing four tandem copies of the specific sequence of the p27^Kip1 promoter fused to a minimal promoter. A double-stranded 52-bp DNA fragment containing a 44-bp sequence corresponding to the −555/−512 region of the human p27^Kip1 promoter and linker sites (indicated by lower case letters below) at both ends was generated from two oligonucleotides. The top strand (5′-aggg[…]-3′) (SEQ ID NO: 5) and the bottom strand (5′-ccct[…]-3′) (SEQ ID NO: 6) were annealed, ligated, blunted and subcloned into the SmaI site upstream of the SV40 early promoter in the PicaGene Promoter Vector 2 (Nippon Gene, Tokyo, Japan) in a forward or reverse orientation to generate PGPV2[−555/−512wild]4 and PGPV2[R−555/−512wiId]4, respectively. Similarly, three types of double-stranded mutated oligonucleotides of the 44-bp sequence were also inserted into the same vector to generate the mutated constructs, PGPV2[−555/−512mSp1-1]4, PGPV2[−555/−512 mSp1-2]4, PGPV2[−555/−512mCTf]4 (see Table 1). Oligonucleotides used in Example 3-6 are shown as follows (SEQ ID NOS: 5, 6, and 18-31).
# The present inventors concluded that the region between −555 and −512 relative to the translation start site (−118 and −75 relative to the transcription start site) was sufficient for vitamin D3-induced transcription of the p27^Kip1 gene. Furthermore, both the Sp1-1 site and the CCAAT box in this region were vitamin D3-responsive elements and were required for vitamin D3-induced transcription of the p27^Kip1 gene.
# NF-I = assay: Gel shift assay, NF-I binding to NF-Iwild probe, nuclear extracts of treated U937 cells; format: cell-based, human; details: U937 cells treated 36 h, versus vehicle
# Protocol: Two μg of each nuclear extract was incubated with the −555/−512wild probe (lanes 1-3), −534/−512wild probe (lanes 4-6), or NF-Iwild probe (lanes 7-12) to detect Sp1, NF-Y, and NF-I, respectively.
# Nuclear extracts of U937 cells were prepared according to the procedure of Andrew and Faller (Andrews, N. C. and Faller, D. V. (1991) Nucleic Acids Res., 19, 2499). […] Gel shift assays were carried out as described by Orita et al. (Orita, T. et al. (1997) J. Biol. Chem., 272, 23216-23223). The reaction mixture for the gel shift assay (25 μl final volume) contained 20 mM Tris-HCl (pH 8.0), 100 mM KCl, 10% glycerol, 1 μg of poly(dl-dC), and 2 μg of nuclear extract. After preincubation for 15 minutes at 23° C., probe DNA (approximately 0.5 ng, 10,000 cpm) was added to the mixture, and the binding reaction was allowed to proceed at 23° C. for 20 min. The resulting product was then resolved by electrophoresis on 4% acrylamide-bisacrylamide (29:1), 0.5×TBE nondenaturing gel at 10 V/cm for 150 min. Competition analyses were performed by mixing the indicated amount of appropriate competitor DNA to the binding reaction prior to addition of nuclear extracts. In supershift experiments, antibodies against Sp1 (sc-59X; Santa Cruz), Sp3 (sc-644X; Santa Cruz), and C/EBP-α (sc-7204X; Santa Cruz) were purchased. The antibodies against NF-YA, -YB, and -YC (IgG fraction) were kindly provided by Drs. […]
# NF-YA mRNA = assay: RT-PCR of NF-YA mRNA in treated U937 cells; format: cell-based, human; details: 10^−7 M, time course, primers F1/R and F2/R
# Protocol: RT-PCR of NF-YA mRNA was carried out as follows. […] RT-PCR was performed using the RNA PCR Kit Ver. 2.1 (Takara, Tokyo, Japan). The forward (F) and reverse (R) primers for NF-YA-short and -long were […] (Primer F1) (SEQ ID NO: 12), […] (primer F2) (SEQ ID NO: 13), and […] (primer R) (SEQ ID NO: 14). The forward and reverse primers for G3PDH were […] (SEQ ID NO: 15) and […] (SEQ ID NO: 16). One microgram of total RNA was used for RT-PCR. PCR was performed for 25 and 20 cycles to detect NF-YA subunits and G3PDH, respectively. PCR products were subjected to electrophoresis in a 3% agarose gel. The primers for NF-YA were designed to detect two different isoforms simultaneously and were located in regions that were conserved in the two isoforms (Li, X. Y. et al. (1992) J. Biol. Chem., 267, 8984-8990).
structure (smiles),measurement,setting,value
"C=C1/C(=C\C=C2/CCC[C@]3(C)[C@@H]([C@H](C)CCCC(C)(C)O)CC[C@@H]23)C[C@@H](O)C[C@@H]1O [vitamin D3, 1,25-dihydroxyvitamin D3]",p27^Kip1 mRNA induction,p27^Kip1 mRNA,approximately 4 fold
same,"response to vitamin D3, one copy of the 44 bp fragment",[1],did not respond
same,"stimulatory effect, PGPV2[−555/−512mCTF]4","[1]; 40 h, 10^−7 M",abolished any stimulatory effect
same,"stimulatory effect, PGPV2[−555/−512 mSp1-1]4","[1]; 40 h, 10^−7 M",abolished any stimulatory effect
same,"response to vitamin D3, four copies of the 44 bp fragment (PGPV2[−555/−512wild]4)","[1]; 40 h, 10^−7 M, orientation-dependent",conferred significant response
same,"luciferase activity, PGPV2[−555/−512 mSp1-2]4","[1]; 40 h, 10^−7 M, similar to p27PF and PGPV2[−555/−512wild]4",activated
same,DNA binding activity of NF-I,NF-I,not changed
same,long form of NF-YA mRNA,NF-YA mRNA,decreased gradually
